In patent US10364256B2 (GlaxoSmithKline Intellectual Property Development Limited, priority 2015, dated 2019):

What was measured:
[1] = molecular target: T1, Keap1 Kelch domain (321-609) / TAMRA-labeled 16mer NRF2 peptide (ETGE motif) (Homo sapiens, UniProt Q14145); assay: NRF2-Keap1 FP Assay (Keap1 Kelch fluorescence polarization); type: binding; details: 20 nM Keap1 (321-609), 8 nM Tamra labeled peptide
T1 construct: the Kelch domain (321-609) of Keap1 is used
In short: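 Compound dilutions (3-fold) were incubated 1 hr at room temperature with 20 nM Keap1 Kelch (321-609) and 8 nM TAMRA-labeled ETGE 16mer peptide. Buffer was 50 mM Tris pH 8.0, 100 mM NaCl, 5 mM MgCl2, 1 mM DTT, 2 mM CHAPS, 0.005% BSA. Fluorescence polarization (mP) was normalized to controls and fitted with a four-parameter equation to give pIC50.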

[2] = tested on: NQO1 specific enzyme activity in BEAS-2B cells (marker for NRF2 activation); assay: BEAS-2B NQO1 MTT Assay; type: cell-based; details: Homo sapiens, compound incubated 48 hours, read-out: EC50 (NQO1 specific enzyme activity induction)
In short: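 BEAS-2B cells treated with compound for 48 h at 37 °C, then lysed; NQO1 activity in lysates measured kinetically by MTT reduction at A570 over 30 min. pEC50 from 3-parameter fit of ΔOD/min versus log concentration; lysate also taken for Cell Titer Glo.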

[3] = molecular target: T2, full length Keap1 protein / full length NRF2 protein (Homo sapiens, UniProt Q14145); assay: NRF2-Keap1 TR-FRET Assay; type: binding; details: 25 nM Keap1-FlagHis and 50 nM biotin-NRF2 added
T2 construct: full length NRF2 protein and full length Keap1 protein (Keap1 exists a dimer) are used; His
T2 sequence (Q14145 whole entry): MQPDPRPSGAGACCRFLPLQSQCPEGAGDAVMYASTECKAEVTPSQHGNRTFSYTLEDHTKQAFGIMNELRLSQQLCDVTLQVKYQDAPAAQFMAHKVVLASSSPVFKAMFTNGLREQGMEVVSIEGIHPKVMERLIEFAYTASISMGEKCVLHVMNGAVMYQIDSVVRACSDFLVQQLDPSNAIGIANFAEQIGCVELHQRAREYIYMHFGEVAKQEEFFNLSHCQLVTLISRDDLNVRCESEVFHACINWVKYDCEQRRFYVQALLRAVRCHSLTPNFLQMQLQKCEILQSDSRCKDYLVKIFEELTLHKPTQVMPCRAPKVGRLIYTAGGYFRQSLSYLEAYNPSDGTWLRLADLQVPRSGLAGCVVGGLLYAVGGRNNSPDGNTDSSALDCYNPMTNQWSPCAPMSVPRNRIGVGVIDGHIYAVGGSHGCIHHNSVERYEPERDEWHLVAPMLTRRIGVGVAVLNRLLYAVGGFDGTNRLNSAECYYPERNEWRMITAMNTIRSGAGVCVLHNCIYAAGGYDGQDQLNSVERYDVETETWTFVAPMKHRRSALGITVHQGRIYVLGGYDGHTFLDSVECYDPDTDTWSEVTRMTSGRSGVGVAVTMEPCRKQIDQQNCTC
From the text: In the NRF2-Keap1 TR-FRET (time-resolved fluorescence resonance energy transfer) assay, full length NRF2 protein and full length Keap1 protein (Keap1 exists a dimer) are used. The assay detects the ability of compound to displace the binding of FlagHis-tagged Keap1 with biotinylated, Avi-tagged NRF2 protein. Biotin-NRF2 binds to streptavidin-europium (a component of the detection mix) and Keap1-FlagHis is recognized by anti-Flag APC (allophycocyanin) antibody (also a component of the detection mix). If binding occurs between the two proteins, there will be an energy transfer from the Eu+3 (donor) at 615 nm to the APC (acceptor) at 665 nm. A potential Keap1 inhibitor will cause a reduction in the TR-FRET signal by interfering with the binding of Keap1 to NRF2.
One hundred nanoliters of 100× compound dose response curves (serial 3-fold dilutions) in DMSO are stamped using an Echo liquid handling system (Labcyte) into 384-well, low volume, black assay plates (Greiner, #784076), with DMSO in columns 6 and 18. The top concentration of compound is located in columns 1 and 13. All reagents are diluted in assay buffer (50 mM Tris, pH 8.0, 5 mM MgCl2, 100 mM NaCl, 0.005% BSA, 1 mM DTT, and 2 mM CHAPS). The BSA, DTT, and CHAPS are added to the assay buffer on the day of assay. Using a Multidrop Combi (Thermo Electron Corporation) equipped with a metal tip dispenser, 5 ul of 25 nM Keap1-FlagHis protein is added to all wells of the compound plate, with the exception of the wells in column 18. Wells in column 18 receive 5 ul of assay buffer instead. Plates are centrifuged at 500 rpm for 1 minute, covered with a plate lid, and incubated at 37° C. for 2.25 hours. Plates are then removed from the incubator and allowed to cool to RT for 15 minutes. Five microliters of 50 nM biotin-NRF2 protein is then added to all wells of the plates and the plates are spun at 500 rpm for 1 minute, followed by incubating at 4° C. for 1.25 hours. The plates are then allowed to warm to RT for 15 minutes, followed by the addition of 10 ul of detection mix (1 nM Streptavidin Eu+ W1024 and 5 ug/ml mouse anti-DYKDDDDK IgG conjugated to SureLight APC antibody; both from Columbia Biosciences) to all wells. Plates are spun at 500 rpm for 1 minute, incubated for 1 hour at RT, and read on an Envision plate reader using a 320 nm excitation filter and 615 nm and 665 nm emission filters. Compound response (% inhibition) and potency (pIC50) are calculated based on the ratio of the two emissions (665 nm/615 nm) and then the transformed data is normalized against controls in the assay (control 1=1% DMSO in the presence of NRF2 and Keap1 protein and control 2=1% DMSO in the absence of protein). Data analysis is handled using the software package Abase XE (Surrey, United Kingdom). The % inhibition values are calculated from the ratio (transformed) data by the equation: 100−(100*(compound response−average control 2)/(average control 1−average control2)). For calculation of pIC50s, Abase XE uses a four parameter equation. pIC50 is the negative log of the IC50.

[4] = molecular target: T2, full length Keap1 protein / full length NRF2 protein; assay: NRF2-Keap1 TR-FRET Low Protein Assay; type: binding; details: 1.25 nM Keap1 FlagHis and 2.5 nM biotin-NRF2 added
In short: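 Flag-tagged full-length Keap1 was preincubated with compound (3-fold series) for 2.25 h at 37 °C in Tris pH 8.0/MgCl2/NaCl/BSA/DTT/CHAPS. Biotin-Avi-NRF2 (added at 2.5 nM) was then bound for 1.25 h at 4 °C. Eu-streptavidin/anti-Flag-APC TR-FRET (665/615 nm) was read after 1 h at RT, and pIC50 came from a four-parameter fit.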

T1 sequence (Q14145 321-609): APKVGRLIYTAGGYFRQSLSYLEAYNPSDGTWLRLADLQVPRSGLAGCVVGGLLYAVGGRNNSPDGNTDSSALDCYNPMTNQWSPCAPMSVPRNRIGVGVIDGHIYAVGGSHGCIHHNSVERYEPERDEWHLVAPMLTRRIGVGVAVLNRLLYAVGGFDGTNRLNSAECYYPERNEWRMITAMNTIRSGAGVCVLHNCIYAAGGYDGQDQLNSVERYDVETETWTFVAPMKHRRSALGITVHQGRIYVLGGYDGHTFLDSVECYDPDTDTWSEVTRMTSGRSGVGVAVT

SMILES	IC50 [1]	IC50 [3]	IC50 [4]	EC50 [2]
CN(C(=O)c1cccc(-c2cccc(-n3ncc(C(=O)O)c3C3CC3)c2)c1F)C1CCCCC1 [Example 5, 1-(3-{3-[Cyclohexyl(methyl)carbamoyl]-2-fluorophenyl}phenyl)-5-cyclopropyl-1H-pyrazole-4-carboxylic Acid]	100 to 1000 nM	1000 to 10000 nM		1000 to 10000 nM
CC(=O)N1CCC(c2c(C(=O)O)cnn2-c2cccc(-c3cccc(C(=O)N(C)C)c3)c2)CC1 [Example 46]	1000 to 10000 nM	10000 to 100000 nM		1000 to 10000 nM
CN(C)C(=O)c1cccc(-c2cccc(-n3ncc(C(=O)O)c3C3CC(c4ccccc4)C3)c2)c1 (stereo not drawn) [Example 49, 1-{3-[3-(dimethylcarbamoyl)phenyl]phenyl}-5-(3-phenylcyclobutyl)-1H-pyrazole-4-carboxylic Acid]	100 to 1000 nM	10000 to 100000 nM		1000 to 10000 nM
CC(=O)N[C@@H]1CC[C@H](c2c(C(=O)O)cnn2-c2cccc(-c3cccc(OC(C)C)c3F)c2)C1 (racemic) [Example 13, 5-[(cis)-3-Acetamidocyclopentyl]-1-{3-[2-fluoro-3-(propan-2-yloxy)phenyl]phenyl}-1H-pyrazole-4-carboxylic Acid]	1000 to 10000 nM	10000 to 100000 nM		1000 to 10000 nM
Cn1cc(CCc2c(C(=O)O)cnn2-c2cccc(-c3cccc(OCC4CCCCC4)c3)c2)nn1 [Example 151, 1-(3-(Cyclohexylmethoxy)-[1,1′-biphenyl]-3-yl)-5-(2-(1-methyl-1H-1,2,3-triazol-4-yl)ethyl)-1H-pyrazole-4-carboxylic acid]	1000 to 10000 nM	10000 to 100000 nM		1000 to 10000 nM
CCC[C@@H]1CCCCN1C(=O)c1cccc(-c2cccc(-n3nc(C)c(C(=O)O)c3C3CC3)c2)c1 [Example 203, (R)-5-Cyclopropyl-3-methyl-1-(3′-(2-propylpiperidine-1-carbonyl)-[1,1′-biphenyl]-3-yl)-1H-pyrazole-4-carboxylic acid]	1000 to 10000 nM	1000 to 10000 nM		1000 to 10000 nM
CC(C)Oc1cccc(-c2cccc(-n3ncc(C(=O)O)c3C(F)(F)F)c2)c1 [Example 11, 1-{3-[3-(propan-2-yloxy)phenyl]phenyl}-5-(trifluoromethyl)-1H-pyrazole-4-carboxylic Acid]	1000 to 10000 nM	10000 to 100000 nM		1000 to 10000 nM
Cc1cc([C@@H]2C[C@H]2c2c(C(=O)O)cnn2-c2cccc(-c3cccc(O[C@@H](C)C4CCCCC4)c3)c2)on1 [Example 115, 1-(3′-((S)-1-cyclohexylethoxy)-[1,1′-biphenyl]-3-yl)-5-((1R,2R)-2-(3-methylisoxazol-5-yl)cyclopropyl)-1H-pyrazole-4-carboxylic Acid]	100 to 1000 nM		100 to 1000 nM	100 to 1000 nM
Cn1cc([C@@H]2C[C@H]2c2c(C(=O)O)cnn2-c2cccc(-c3cccc(CCC4CCCCC4)c3)c2)nn1 (racemic) [Example 114, rac-1-(3′-(2-Cyclohexylethyl)-[1,1′-biphenyl]-3-yl)-5-(-2-(1-methyl-1H-1,2,3-triazol-4-yl)cyclopropyl)-1H-pyrazole-4-carboxylic Acid]	100 to 1000 nM		10 to 100 nM	10 to 100 nM
C[C@H]1Cc2ccccc2S(=O)(=O)N(Cc2cccc(-c3cccc(-n4ncc(C(=O)O)c4[C@@H]4C[C@H]4c4cn(C)nn4)c3)c2)C1 [Example 132, 1-(3′-(((S)-4-methyl-1,1-dioxido-4,5-dihydrobenzo[f][1,2]thiazepin-2(3H)-yl)methyl)-[1,1′-biphenyl]-3-yl)-5-((1R,2R)-2-(1-methyl-1H-1,2,3-triazol-4-yl)cyclopropyl)-1H-pyrazole-4-carboxylic acid]	10 to 100 nM		< 10 nM	100 to 1000 nM
CC[C@@H]1CN(Cc2cccc(-c3cccc(-n4ncc(C(=O)O)c4[C@H]4C[C@@H]4c4cn(C(C)C)nn4)c3)c2)Cc2ccccc2O1 (racemic) [Example 128, 1-(3′-(((R)-2-ethyl-2,3-dihydrobenzo[f][1,4]oxazepin-4(5H)-yl)methyl)-[1,1′-biphenyl]-3-yl)-5-((1,2-trans)-2-(1-isopropyl-1H-1,2,3-triazol-4-yl)cyclopropyl)-1H-pyrazole-4-carboxylic Acid]	10 to 100 nM		< 10 nM	100 to 1000 nM

Second part, led by results:

IC50 [1]	IC50 [3]	IC50 [4]	SMILES	EC50 [2]
10 to 100 nM	100 to 1000 nM		O=C(O)c1cnn(-c2cccc(-c3cccc(C(=O)N4CCCC5(CCCOC5)C4)c3F)c2)c1C1CC1 (stereo not drawn) [Example 43, 5-Cyclopropyl-1-[3-(2-fluoro-3-{2-oxa-8-azaspiro[5.5]undecane-8-carbonyl}phenyl)phenyl]-1H-pyrazole-4-carboxylic Acid]	1000 to 10000 nM
10 to 100 nM		10 to 100 nM	CCn1cc([C@@H]2C[C@H]2c2c(C(=O)O)cnn2-c2cccc(-c3cccc(O[C@@H](C)C4CCCCC4)c3)c2)nn1 (racemic) [Example 76, 1-(3′-((S)-1-Cyclohexylethoxy)-[1,1′-biphenyl]-3-yl)-5-(trans-2-(1-ethyl-1H-1,2,3-triazol-4-yl)cyclopropyl)-1H-pyrazole-4-carboxylic acid]	1 to 10 nM
10 to 100 nM		10 to 100 nM	Cn1cc([C@@H]2C[C@H]2c2c(C(=O)O)cnn2-c2cccc(-c3cccc(CN4CCOc5ccccc5C4)c3)c2)nn1 (racemic) [Example 256, 1-(3′-((2,3-Dihydrobenzo[f][1,4]oxazepin-4(5H)-yl)methyl)-[1,1′-biphenyl]-3-yl)-5-(trans-2-(1-methyl-1H-1,2,3-triazol-4-yl)cyclopropyl)-1H-pyrazole-4-carboxylic Acid]	1000 to 10000 nM
10 to 100 nM		< 10 nM	CC[C@@H]1CN(Cc2cccc(-c3cccc(-n4ncc(C(=O)O)c4[C@@H]4C[C@H]4c4cn(C)nn4)c3)c2)Cc2ccccc2O1 [Example 65, 1-(3′-(((R)-2-Ethyl-2,3-dihydrobenzo[f][1,4]oxazepin-4(5H)-yl)methyl)-[1,1′-biphenyl]-3-yl)-5-((1R,2R)-2-(1-methyl-1H-1,2,3-triazol-4-yl)cyclopropyl)-1H-pyrazole-4-carboxylic Acid]	100 to 1000 nM
10 to 100 nM		10 to 100 nM	C[C@@H]1Cc2ccccc2S(=O)(=O)N(Cc2cccc(-c3cccc(-n4ncc(C(=O)O)c4[C@@H]4C[C@H]4c4cn(C)nn4)c3)c2)C1 [Example 130, 1-(3′-(((R)-4-Methyl-1,1-dioxido-4,5-dihydrobenzo[f][1,2]thiazepin-2(3H)-yl)methyl)-[1,1′-biphenyl]-3-yl)-5-((1R,2R)-2-(1-methyl-1H-1,2,3-triazol-4-yl)cyclopropyl)-1H-pyrazole-4-carboxylic Acid]	100 to 1000 nM
